{"source": "ChEMBL document CHEMBL1143132", "about": "“Synthesis and protective effects of coumarin derivatives against oxidative stress induced by doxorubicin” (2008)", "key": {"MCF7 [1]": {"tested_on": "MCF7", "assay": "Antioxidant activity in human MCF7 cells assessed as reduction of H2O2 production at 100 uM", "assay_type": "functional, cell-based"}, "MCF7 [2]": {"tested_on": "MCF7", "assay": "Cytotoxicity against human MCF7 cells at 100 uM", "assay_type": "functional"}, "MCF7 [3]": {"tested_on": "MCF7", "assay": "Protective effect against doxorubicin-induced oxidative stress in human MCF7 cells assessed as reduction of ROS level at 25 uM", "assay_type": "functional, cell-based"}}, "note": "Activity calls are given as the source filed them. The calls are words filed in the database; no cut-off is given here."}
{"molecule": "CCCCCCCCCCCCSCc1cc(=O)oc2c(OC(C)=O)c(OC(C)=O)ccc12", "values": [{"measurement": "Activity", "setting": "MCF7 [1]", "value": "Active"}, {"measurement": "Activity", "setting": "MCF7 [2]", "value": 70, "unit": "%"}]}
{"molecule": "Cc1c(Cl)c(=O)oc2c(O)c(O)ccc12", "values": [{"measurement": "Activity", "setting": "MCF7 [1]", "value": "Active"}]}
{"molecule": "Cc1cc(=O)oc2c(O)c(O)ccc12", "values": [{"measurement": "Activity", "setting": "MCF7 [1]", "value": "Active"}, {"measurement": "Activity", "setting": "MCF7 [3]", "value": "Active"}]}
